Key:
[1] = xn = mol fraction of the nth substance listed; details: Liquid, Other PVT measurement
[2] = 101.33 kPa, Liquid; for mass density: Vibrating tube method

CCC[N+]1(C)CCCC1.O=S(=O)([N-]S(=O)(=O)C(F)(F)F)C(F)(F)F + O=C=O
[1]
Details	molar volume [m3/mol]
298.15 K, 525.5 kPa, x2 = 0.134	0.0002522
298.15 K, 1123.1 kPa, x2 = 0.255	0.0002222
298.15 K, 1476.5 kPa, x2 = 0.316	0.0002071
298.15 K, 1913.1 kPa, x2 = 0.376	0.0001924
298.15 K, 2237.6 kPa, x2 = 0.418	0.000182
298.15 K, 2800.7 kPa, x2 = 0.478	0.0001674
298.15 K, 3281.6 kPa, x2 = 0.523	0.0001565
298.15 K, 3998.7 kPa, x2 = 0.578	0.0001431
298.15 K, 4567.3 kPa, x2 = 0.616	0.0001339
313.15 K, 567.7 kPa, x2 = 0.113	0.0002606
313.15 K, 1217.5 kPa, x2 = 0.218	0.0002344
313.15 K, 1606.5 kPa, x2 = 0.273	0.0002203
313.15 K, 2083.3 kPa, x2 = 0.327	0.000207
313.15 K, 2445 kPa, x2 = 0.369	0.0001966
313.15 K, 3072.7 kPa, x2 = 0.425	0.0001827
313.15 K, 3613.6 kPa, x2 = 0.468	0.0001718
313.15 K, 4415.1 kPa, x2 = 0.519	0.0001596
313.15 K, 5100.5 kPa, x2 = 0.561	0.000149
333.15 K, 618.4 kPa, x2 = 0.093	0.0002678
333.15 K, 1333.3 kPa, x2 = 0.18	0.0002455
333.15 K, 1767.4 kPa, x2 = 0.229	0.0002327
333.15 K, 2294.9 kPa, x2 = 0.275	0.0002214
333.15 K, 2702.9 kPa, x2 = 0.316	0.0002107
333.15 K, 3411.9 kPa, x2 = 0.368	0.0001978
333.15 K, 4029.9 kPa, x2 = 0.409	0.0001874
333.15 K, 4942.5 kPa, x2 = 0.455	0.0001767
333.15 K, 5777.2 kPa, x2 = 0.501	0.000165

CCC[N+]1(C)CCCC1.O=S(=O)([N-]S(=O)(=O)C(F)(F)F)C(F)(F)F
[2]
Details	electrical conductivity [S/m]	mass density [kg/m3]	viscosity [mPa·s]
278.15 K	0.158	1446.23	169.4
283.15 K	0.206	1441.6	127.2
288.15 K	0.262	1437	97.84
293.15 K	0.327	1432.46	76.89
298.15 K	0.4	1427.91	61.52
303.15 K	0.483	1423.37	49.99
313.15 K	0.675	1414.36	34.45
323.15 K	0.902	1405.44	24.91
333.15 K	1.16	1396.6	18.71
343.15 K	1.46	1387.82	14.51
353.15 K	1.78	1379.12	11.55
363.15 K	–	1370.48	9.398
